Measurements reported in patent US20040052845A1, “Hydrogel-driven drug dosage form” (priority 2003, published 2004).
Where a name gives a salt, the structure may show the parent alone.

Assay: Aqueous solubility of the drug

Row | Compound | solubility (at pH 4) [mgA/mL] | solubility (at pH 7) [mg/mL]
1 | 4-[3-[4-(2-methylimidazol-1-yl) phenylthio] phenyl]-3,4,5,6-tetrahydro-2H-pyran-4-carboxamide hemifumarate [Drug 3] | 3.7 | 
2 | CN[C@H]1CC[C@@H](c2ccc(Cl)c(Cl)c2)c2ccccc21 [Drug 2, sertraline HCl] |  | 0.2
